The test system of assay [1] is platelets (PAF induced platelet aggregation). Kind of assay: inhibition of PAF-induced platelet aggregation in platelet rich plasma. Format: cell-based, New Zealand rabbits. The note with it: Oryctolagus cuniculus; rabbit platelet rich plasma, 2.5 nM PAF. As to the method: 1--INHIBITION OF THE PLATELETS AGGREGATION ON NEW ZEALAND RABBITS
The experimentation was conducted on platelets with plasma of New Zealand rabbits.
Blood samples were taken from auricular artery and placed in a citrate buffer (3.8 %; pH 7.4); blood was further centrifugated for 15 mn at 1200 RPM.
The tested sample was prepared in DMSO, then poured on platelets rich plasma for 1 mn, then a dose of 2.5 nM of PAF was added.
The determination is made on a Cronolog Coultronics apparatus which determines the transmission percentage corresponding to the maximum height of the peak before the desaggregation.
The percentage of variation of the inhibition with respect to the transmission percentage is calculated (control: pure DMSO).
This method was described in details in LABORATORY INVESTIGATIONS, Vol. 41, No. 3, p. 275, 1979, JEAN-PIERRE CAZENAVE, Dr. MED. , JACQUES BENVENISTE, Dr. MED., AND J. FRASER MUSTARD, M.D., "Aggregation of Rabbits Platelets by Platelet-Activating Factor Is Independent of the Release Reaction and the Arachidonate Pathway and Inhibited by Membrane-Active Drugs".
Five tests made on 5 different rabbits allowed us to calculate the IC50 of the various compounds using the linear regression test.

The subject of assay [2] is polymorphonuclear leukocytes (PMNs). The assay is described as follows: antagonism of polymorphonuclear leukocyte aggregation induced by PAF. The note with it: PAF 10^-8, rat PMNs. Format: cell-based, rat (Wistar). As for the experimental part:
Polymorphonuclear leukocytes (PMNs) were obtained as described by A. W. Ford-Hutchinson et al. (Br - J. Pharmacol. 76, 367-371, 1982). Cell suspensions ([…]) were prepared from peritoneal exudates obtained after a 5 ml IP injection of sodium caseinate 12% (w/v) to male Wistar rats, 300 g body weight.
After centrifugation, cells were washed with Hanks and resuspended in MEM/Hepes 30 mM medium (PM=7.4) at a concentration of 10^7 cells/ml. Cytochalasin B (5 μg/ml) was added 10 minutes before trigering aggregation to amplify the PMNs aggregation. The light transmittance through the cell suspension (400 μl) was measured under a 900 R/mn magnetic stirring, with a dual beam aggregometer (Chronolog Corp. Coultronics.)
The control cuvet is the cell suspension diluted to 20% of the cell count with MEM and the difference represents 100% transmittance. Change in transmittance, which occurs when PAF is added, was continuously recorded.
Drugs solubilized in MEM/Hepes were added (4 μl) to PMNs suspension 2 minutes before PAF addition.

For assay [3], the system named is PAF-induced [Ca^2+ ]i mobilization, washed rabbits platelets. The assay is described as follows: inhibition of intracytosolic free calcium mobilization induced by PAF in washed rabbit platelets. Format: cell-based. The note with it: PAF 2×10^-9 M; resting about 150 nM. As for the experimental part: Blood was taken from the auricular artery of the rabbit on citric acid/sodium citrate/dextrose and anticoagulan and the washed platelets were prepared according to Ardlie et al., Brit. J. Pharmacology, 19, 7-17, 1970. They were incubated with acetylsalicylic salt (100 μM, 30 minutes) to avoid thromboxane induced aggregation. They were then loaded with the fluorescent calcium indicator dye quin 2 by incubation with quin 2 aceto-methylester (15 μM in DMSO, 20 minutes at room temperature) which penetrates the cell membrane and after hydrolysed is trapped in the platelet. Drugs were preincubated with platelets for 15 minutes simultaneously to CP/CPK mixture which destroys secreted ADP.
Fluorescent measurement was then performed (excitation λ=339 nm, emission λ=494 nm) after PAF addition to platelet suspension. The fluorescence intensity is proportional to the cytosolic free calcium level [Ca^2+ ]i which can be quantified as described by Tsien et al., J. Cell Biol., 94, 325-334, 1982.
(In general: Calcium flux is commonly read through the fluorescence of an indicator in the cells.)

In assay [4] the target is T1, [^3 H]-PAF binding, platelet membrane (Oryctolagus cuniculus, UniProt G1TEI7).
T1 construct: Platelet membrane homogenate was stored at -80° C; from tissue; host or cells: rabbit platelets (membrane homogenate from lysed washed platelets)
Kind of assay: inhibition of specific [3H]-PAF binding to rabbit platelet membranes. The note with it: 1 nM [3H]-PAF, 0°C 1 h 30. As to the method: Synthetic tritiated [^3 H]-PAF used was in ethanol solution with a specific activity of 59.5 ci/mmols. Unlabelled PAF and lyso-PAF were solubilized in ethanol solution and stored at -80° C. The compounds were solubilized in DMSO.
Rabbit whole blood (6 volumes) was drawn from the central ear artery into 1 volume of ACD solution (citric acide 1.4 g, sodium citrate 2 5 g, Dextrose 2 g per 100 ml of H2 O) and centrifuged at 150 g for 15 minutes. The platelet-rich plasma (PRP) was carefully removed and centrifuged for 15 minutes at 1000 g. The platelet pellet was then washed 3 times: twice in Tris-HCl buffer 10 mM, pH 7.4 containing NaCl 150 mM, MgCl2 5 mM, EDTA 2 mM and the last time in the same but sodium-free buffer.
The platelet pellet was resuspended in this latter buffer, quickly frozen in liquid nitrogen and slowly thawed at room temperature for at least 3 times as described by T. Y. Shen et al. The lysed platelets were centrifuged at 100,000 g for 30 minutes in a BECKMAN model L8.55 ultra centrifuge (rotor 50.2 Ti). Platelet membrane homogenate was stored at -80° C. and used within two weeks without noticeable changes in PAF-acether binding characteristics.
Protein contain was determined by the Lowry method using bovine serum albumine as standard.
60 to 100 μg of membrane proteins were added to a final volume of 1 ml in plastic tubes containing 1 nM [^3 H]-PAF in Tris-HCl 10 mM pH 7 buffer containing 0.025 % bovine serum albumin and incubated with or without unlabelled PAF or PAF-antagonists. The incubation was carried out for 1 h 30 at 0° C. The bound [^3 H]-PAF was separated from the free [^3 H]-PAF by immediate filtration through whatman GF/C glass fiber filters under vacuum (Brandel system). The reaction and the filters were washed 3 times with 5 ml of ice-cold buffer. The filters were then placed into polyethylene phials filled up with 10 ml of liquid scintillation fluid and the radioactivity was measured by an LKB β counter with 45% efficiency.
The non specific binding was determined in the presence of 10^-6 M of unlabelled PAF. The specific binding was calculated by substracting non specific binding from the total binding. The inhibition by compounds on the specific [^3 H]-PAF binding was determined as the percent inhibition by the equation: [formula]

The structures appear in SMILES notation.

Results on 12 compounds are retold here after patent US4921865A, “Aminoacylates of glycerol acetal” (Societe de Conseils de Recherches et d'Applications …, priority 1987, dated 1990).

T1 sequence (G1TEI7 1-342): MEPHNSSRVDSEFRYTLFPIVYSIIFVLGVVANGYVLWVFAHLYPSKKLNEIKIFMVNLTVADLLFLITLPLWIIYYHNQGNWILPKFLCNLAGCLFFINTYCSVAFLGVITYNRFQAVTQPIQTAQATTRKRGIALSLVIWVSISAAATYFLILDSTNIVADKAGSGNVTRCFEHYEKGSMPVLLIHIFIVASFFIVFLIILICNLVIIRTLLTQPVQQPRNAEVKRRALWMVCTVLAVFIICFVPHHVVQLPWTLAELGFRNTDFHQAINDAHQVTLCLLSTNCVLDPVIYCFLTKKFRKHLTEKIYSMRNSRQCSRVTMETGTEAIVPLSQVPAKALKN

In turn, `CCCCCCCCCCCCCCCCCC1(C)OCC(COC(=O)CCC[n+]2cccc3ccccc32)O1` (stereo not drawn) [Example 2, 2-heptadecyl 2-methyl 4-[4'(N-quinolinium)butyryloxymethyl]1,3-dioxolan chloride] gave a half-maximal inhibitory concentration (IC50) in assay [1] of 1.2 µM. Still for that read-out and setting: under `CCCCCCCCCCCCCCCCCC1(CCC)OCC(COC(=O)CCC[n+]2ccccc2)O1` (stereo not drawn) [Example 6, 2-heptadecyl 2-(n-propyl 4-(4'-(N-pyridinium)butyryloxymethyl]1,3-dioxolan chloride] stands 3.04 µM.

With `CCCCCCCCCCCCCCCCOCC(COP(=O)([O-])OCC[N+](C)(C)C)OC(C)=O` (stereo not drawn) [PAF, reference compound], in assay [2], the “aggregation of PMNs induced” value was in the range of 55 to 70%. Further, the “[Ca^2+ ]i level after stimulation” value in assay [3] fell in the range of 400 to 600 nM. `CCCCCCCCCCCCCCCCCC1OCC(COC(=O)CCC[n+]2cccc3ccccc32)O1` (stereo not drawn) [Example 5, 2-heptadecyl 4[4'-(N-quinolinium)butyryloxymethyl] 1,3 dioxalan chloride] showed an IC50 in assay [1] of 3.1 µM. On the same count and under the same terms, under `CCCCCCCCCCCCCCCCCC1(C)OCC(COC(=O)CCCC[n+]2ccccc2)O1` (stereo not drawn) [Example 7, 2-heptadecyl 2-methyl 4-[5'-(N-pyridinium)pentanoyloxymethyl]1,3-dioxolanchloride] stands 5 µM. Take `CCCCCCCCCC1(C)OCC(COC(=O)CCCCC[n+]2ccccc2)O1` (stereo not drawn) [Example 14, 2-nonyl 2-methyl 4-[6'-(N-pyridiniumhexanoyloxymethyl] 1,3-dioxolan bromide]: the IC50 in assay [1] amounted to 1.46 µM; in assay [4] it was 0.61 µM. `CCCCCCCCCCCCCCCCCC1(CCC)OCC(COC(=O)CCCCC[n+]2ccccc2)O1` (stereo not drawn) [Example 13, 2-heptadecyl 2-(n-propyl) 4-[6'-(N-pyridinium)hexanoylmethyl] 1,3-dioxolanbromide] displayed an IC50 in assay [1] of 1.73 µM.

Regarding `CCCCCCCCCCCCCCCCCC1(C)OCC(COC(=O)CCCCCCCCCC[n+]2ccccc2)O1` (stereo not drawn) [Example 12, 2-heptadecyl 2-methyl 4-[11'-(N-pyridiniumundecanoyloxymethyl) 1,3-dioxolan bromide], the half-maximal inhibitory concentration (IC50) in assay [1] was 31.2 µM. On the same count and under the same terms, under `CCCCCCCCCCCCCCCCCC1(C)OCC(COC(=O)CCC[n+]2ccsc2)O1` (stereo not drawn) [Example 3, 2-heptadecyl 2-methyl 4-[4'-(N-thiazolinium)butyryloxymethyl]1,3-dixolan chloride] stands 21.5 µM. Still for that read-out and setting: under `COc1cc(C2(C)OCC(COC(=O)CCC[n+]3ccccc3)O2)cc(OC)c1OC` (stereo not drawn) [Example 8, 2-(3,4,5-trimethoxyphenyl) 2-methyl 4-[4'-(N-pyridinium)butyryloxymethyl] 1,3-dioxolan chloride] stands 11.3 µM. With `CCCCCCCCCCCCCCCCCC1(C)OCC(COC(=O)CCC[n+]2ccccc2)O1` (stereo not drawn) [Example 1, 2-heptadecyl 2-methyl 4-[4'-(N-pyridinium)butyryloxymethyl]-1,3-dioxolan chloride], the figures for the IC50 in assay [1] and in assay [4] were 2.2 µM and 0.45 µM, respectively. `CCCCCCCCCCCCCCCCCC1OCC(COC(=O)CCC[n+]2ccccc2)O1` (stereo not drawn) [Example 4, 2-heptadecyl 4-[4'-(N-pyridinium)butyryloxymethyl] 1,3-dioxolan chloride] returned an IC50 in assay [1] of 7 µM.

In general, IC50 refers to the concentration at which inhibition is half-maximal. A lower IC50 goes with inhibition by little substance.
